Consider 21 compounds from patent publication US20260265238A1, “COMPOUNDS AND PHARMACEUTICAL COMPOSITIONS THAT DEGRADE SWI/SNF-RELATED MATRIX-ASSOCIATED ACTIN-DEPENDENT REGULATOR OF CHROMATIN SUBFAMILY A” (Plexium, Inc., priority 2023, published 2026).

For experiment [1], the target named is T1, SMARCA2-HiBiT HeLa cells (protein which is expressed from the SMARCA2 gene) (Homo sapiens, UniProt P51531).
T1 construct: protein which is expressed from the SMARCA2 and SMARCA4 genes; host or cells: HeLa (SMARCA2-HiBiT engineered line)
T1 sequence (P51531 whole entry): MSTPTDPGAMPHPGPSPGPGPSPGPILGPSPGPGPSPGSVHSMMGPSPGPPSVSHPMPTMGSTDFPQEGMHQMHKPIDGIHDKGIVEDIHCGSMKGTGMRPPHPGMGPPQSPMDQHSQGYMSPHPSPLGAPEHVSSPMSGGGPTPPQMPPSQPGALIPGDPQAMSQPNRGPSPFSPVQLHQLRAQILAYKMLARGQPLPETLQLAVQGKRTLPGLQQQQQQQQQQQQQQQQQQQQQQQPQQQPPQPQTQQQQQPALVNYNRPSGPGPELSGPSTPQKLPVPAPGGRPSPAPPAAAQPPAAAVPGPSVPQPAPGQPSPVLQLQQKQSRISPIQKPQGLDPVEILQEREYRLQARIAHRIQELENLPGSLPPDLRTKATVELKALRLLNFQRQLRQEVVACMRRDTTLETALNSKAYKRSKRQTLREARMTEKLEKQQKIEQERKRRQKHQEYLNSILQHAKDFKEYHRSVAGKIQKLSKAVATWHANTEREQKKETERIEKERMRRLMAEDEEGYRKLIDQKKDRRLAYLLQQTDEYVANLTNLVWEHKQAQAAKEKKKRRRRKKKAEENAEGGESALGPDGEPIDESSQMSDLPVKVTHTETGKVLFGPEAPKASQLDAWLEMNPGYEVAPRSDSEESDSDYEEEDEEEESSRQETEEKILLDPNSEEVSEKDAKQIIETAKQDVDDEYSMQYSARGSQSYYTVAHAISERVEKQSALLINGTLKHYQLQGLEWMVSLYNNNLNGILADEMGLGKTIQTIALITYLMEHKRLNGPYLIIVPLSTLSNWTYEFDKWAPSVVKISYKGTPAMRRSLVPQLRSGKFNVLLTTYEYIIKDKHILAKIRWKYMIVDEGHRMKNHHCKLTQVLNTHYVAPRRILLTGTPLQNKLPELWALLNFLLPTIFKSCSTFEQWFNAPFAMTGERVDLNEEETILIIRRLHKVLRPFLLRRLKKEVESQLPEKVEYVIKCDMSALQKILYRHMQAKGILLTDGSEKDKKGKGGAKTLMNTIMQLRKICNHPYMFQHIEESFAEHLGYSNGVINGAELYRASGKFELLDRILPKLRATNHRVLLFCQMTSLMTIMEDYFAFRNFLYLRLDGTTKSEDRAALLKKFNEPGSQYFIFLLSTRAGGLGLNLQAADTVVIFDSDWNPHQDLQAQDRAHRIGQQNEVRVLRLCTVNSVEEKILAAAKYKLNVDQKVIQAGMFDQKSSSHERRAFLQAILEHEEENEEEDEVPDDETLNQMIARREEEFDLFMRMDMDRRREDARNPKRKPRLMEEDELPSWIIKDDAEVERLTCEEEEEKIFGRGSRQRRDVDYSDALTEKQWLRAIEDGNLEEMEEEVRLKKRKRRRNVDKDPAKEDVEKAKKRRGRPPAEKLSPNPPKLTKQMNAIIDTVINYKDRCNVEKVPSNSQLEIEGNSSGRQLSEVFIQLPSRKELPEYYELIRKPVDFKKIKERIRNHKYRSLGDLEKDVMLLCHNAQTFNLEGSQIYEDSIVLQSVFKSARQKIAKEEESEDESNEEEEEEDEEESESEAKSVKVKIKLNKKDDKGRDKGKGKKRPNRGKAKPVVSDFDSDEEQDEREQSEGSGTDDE
The experiment can be described thus: SMARCA2 degradation assay (HiBiT-fusion HeLa cell line, 24 h, luminescence). It is filed as cell-based. Put shortly:
(§1)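 SMARCA2- or SMARCA4-HiBiT HeLa cells seeded overnight at 37° C, then given compound as a 10-point dilution (typically 10 μM to 300 pM) for 24 h at 37° C. Protein level read by HiBiT lytic detection luminescence; DC50 from dose-response curves; degradation also scored at 1 μM.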
(In general: HiBiT is a short tag that completes a luciferase, so light tracks the accessible tagged protein.)

The target in experiment [2] is T2, SMARCA4-HiBiT HeLa cells (protein which is expressed from the SMARCA4 gene) (Homo sapiens, UniProt P51532).
T2 construct: protein which is expressed from the SMARCA2 and SMARCA4 genes; host or cells: HeLa (SMARCA4-HiBiT engineered line)
T2 sequence (P51532 whole entry): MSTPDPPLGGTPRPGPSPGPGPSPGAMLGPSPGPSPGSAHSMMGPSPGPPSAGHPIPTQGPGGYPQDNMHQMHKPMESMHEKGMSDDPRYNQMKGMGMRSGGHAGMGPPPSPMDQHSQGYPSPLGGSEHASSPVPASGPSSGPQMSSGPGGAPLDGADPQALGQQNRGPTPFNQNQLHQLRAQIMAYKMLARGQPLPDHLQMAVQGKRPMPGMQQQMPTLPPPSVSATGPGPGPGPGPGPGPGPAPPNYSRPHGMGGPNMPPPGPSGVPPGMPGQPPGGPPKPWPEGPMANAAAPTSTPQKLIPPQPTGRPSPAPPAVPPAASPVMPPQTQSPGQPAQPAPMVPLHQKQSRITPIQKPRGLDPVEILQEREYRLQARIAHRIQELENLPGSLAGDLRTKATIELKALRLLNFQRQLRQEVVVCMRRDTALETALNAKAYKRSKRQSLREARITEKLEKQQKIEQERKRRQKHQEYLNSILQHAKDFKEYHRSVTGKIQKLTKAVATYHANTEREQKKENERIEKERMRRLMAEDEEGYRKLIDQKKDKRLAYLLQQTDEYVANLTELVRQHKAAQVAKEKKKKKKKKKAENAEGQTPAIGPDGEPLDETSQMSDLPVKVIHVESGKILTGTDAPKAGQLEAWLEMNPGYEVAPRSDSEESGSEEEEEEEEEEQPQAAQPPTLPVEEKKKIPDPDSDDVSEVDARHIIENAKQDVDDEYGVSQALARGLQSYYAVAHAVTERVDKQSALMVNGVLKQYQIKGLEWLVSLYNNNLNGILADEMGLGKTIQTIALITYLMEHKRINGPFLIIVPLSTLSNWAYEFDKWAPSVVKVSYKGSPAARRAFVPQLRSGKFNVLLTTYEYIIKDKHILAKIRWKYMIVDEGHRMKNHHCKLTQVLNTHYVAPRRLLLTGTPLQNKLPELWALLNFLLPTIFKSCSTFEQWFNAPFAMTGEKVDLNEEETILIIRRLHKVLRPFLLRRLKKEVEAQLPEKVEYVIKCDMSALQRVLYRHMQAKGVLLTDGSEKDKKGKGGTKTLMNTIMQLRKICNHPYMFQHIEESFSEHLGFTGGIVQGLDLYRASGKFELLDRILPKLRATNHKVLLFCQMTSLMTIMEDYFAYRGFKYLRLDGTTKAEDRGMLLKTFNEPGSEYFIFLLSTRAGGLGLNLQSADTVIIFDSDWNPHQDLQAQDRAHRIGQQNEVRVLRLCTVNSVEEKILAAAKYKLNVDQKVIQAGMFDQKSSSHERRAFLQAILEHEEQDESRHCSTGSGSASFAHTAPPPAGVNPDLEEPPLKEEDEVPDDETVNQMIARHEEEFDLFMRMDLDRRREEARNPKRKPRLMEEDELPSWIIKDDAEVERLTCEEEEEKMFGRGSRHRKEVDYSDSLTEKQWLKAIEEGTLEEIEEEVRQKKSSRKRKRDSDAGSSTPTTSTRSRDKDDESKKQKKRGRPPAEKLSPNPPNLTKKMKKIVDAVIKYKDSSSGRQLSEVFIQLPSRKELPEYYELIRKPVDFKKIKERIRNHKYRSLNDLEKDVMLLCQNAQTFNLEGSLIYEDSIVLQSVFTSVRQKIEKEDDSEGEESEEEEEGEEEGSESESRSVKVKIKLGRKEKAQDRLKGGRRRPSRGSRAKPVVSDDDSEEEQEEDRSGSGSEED
As to the kind of experiment: SMARCA4 degradation assay (HiBiT-fusion HeLa cell line, 24 h, luminescence). Format: cell-based. Put shortly: as §1

Molecules are shown by their SMILES. Where only a bound is given, the exact number is not on record here.

By DC50 is commonly meant the concentration giving 50% degradation. The term inhibition denotes the share of the control response that was lost under treatment. A high value points to strong suppression.

For the compound `C[C@@H]1CCN(c2cc(-c3ccccc3O)nnc2N)CCN1c1ccnc(C#CCN2CCCCC2)n1` [Compound P-335, 0-(5-{(R)-5-methyl-4-[2-(3-piperidino-1-propynyl)-4-pyrimidinyl]-1,4-diazepan-1-y1}-6-amino-3-pyridazinyl)phenol], in experiment [1], the DC50 was under 50 nM and the “SMARCA2 % Degradation @ 1 μM” value is on record as “++ (++=30-70%)”. In experiment [2], this compound returned a DC50 of under 50 nM and an inhibition at 1 µM of 30 to 70%.
Consider `Cc1nn2ccn(CC#Cc3nccc(N4CCN(c5cc(-c6ccccc6O)nnc5N)CC[C@H]4C)n3)c(=O)c2c1C` [Compound P-336, 5-[3-(4-{ (R)-4-[3-amino-6-(o-hydroxyphenyl)-4-pyridazinyl]-7-methyl-1,4-diazepan-1-yl}-2-pyrimidinyl)-2-propynyl]-2,3-dimethyl-1,5,7a-triaza-4(5H)-indenone], for which, in experiment [1], the DC50 lay in the range of 50 to 500 nM and the “SMARCA2 % Degradation @ 1 μM” value was “++ (++=30-70%)”. In experiment [2], this compound gave a DC50 of 50 to 500 nM and an inhibition at 1 µM of under 30%.
For the compound `Nc1nnc(-c2ccccc2O)cc1N1CCCN(c2ccnc(C#CCN3CCC(Cc4ccccc4)CC3)n2)CC1` [Compound P-337, 0-[6-amino-5-(4-{2-[3-(4-benzyl-1-piperidyl)-1-propynyl]-4-pyrimidinyl}-1,4-diazepan-1-yl)-3-pyridazinyl]phenol], in experiment [1], the DC50 is 50 to 500 nM and the “SMARCA2 % Degradation @ 1 μM” value was “+++ (+++=>70%)”. In experiment [2], this compound had a DC50 of 50 to 500 nM and an inhibition at 1 µM of over 70%.
Take `Nc1nnc(-c2ccccc2O)cc1N1CCCN(c2ccnc(C#CCN3C4CCC3CC(O)C4)n2)CC1` (centres unmarked) [Compound P-338, 8-[3-(4-{4-[3-amino-6-(o-hydroxyphenyl)-4-pyridazinyl]-1,4-diazepan-1-yl}-2-pyrimidinyl)-2-propynyl]-8-azabicyclo[3.2.1]octan-3-ol]: in experiment [1], the 50% degradation concentration (DC50) was 50 to 500 nM and the “SMARCA2 % Degradation @ 1 μM” value was “++ (++=30-70%)”. In addition, in experiment [2], the DC50 fell in the range of 50 to 500 nM and the inhibition at 1 µM was under 30%.
For `Nc1nnc(-c2ccccc2O)cc1N1CCCN(c2ccnc(C#CCNC(=O)OCC(F)(F)F)n2)CC1` [Compound P-339, 6-(o-hydroxyphenyl)-4-(4-{2-[3-(2,2,2-trifluoroethoxycarbonylamino)-1-propynyl]-4-pyrimidinyl}-1,4-diazepan-1-yl)-3-pyridazinamine], in experiment [1], the half-maximal degradation concentration (DC50) fell in the range of 50 to 500 nM and the “SMARCA2 % Degradation @ 1 μM” value is “+++ (+++=>70%)”. Also, in experiment [2], the DC50 was 50 to 500 nM and the inhibition at 1 µM is over 70%.
As to `Nc1nnc(-c2ccccc2O)cc1N1CCCN(c2ccnc(C#CC3CCOC3)n2)CC1` (centres unmarked) [Compound P-340, 0-[6-amino-5-(4-{2-[2-(tetrahydro-3-furyl)ethynyl]-4-pyrimidinyl}-1,4-diazepan-1-yl)-3-pyridazinyl]phenol], in experiment [1], the DC50 was in the range of 50 to 500 nM and the “SMARCA2 % Degradation @ 1 μM” value was “++ (++=30-70%)”. In experiment [2], this compound gave a DC50 of 50 to 500 nM and an inhibition at 1 µM of 30 to 70%.
On to `CC(C)(O)C#Cc1nccc(N2CCCN(c3cc(-c4ccccc4O)nnc3N)CC2)n1` [Compound P-341, 4-(4-{4-[3-amino-6-(0-hydroxyphenyl)-4-pyridaziny1]-1,4-diazepan-1-yl}-2-pyrimidinyl)-2-methyl-3-butyn-2-ol], for which, in experiment [1], the half-maximal degradation concentration (DC50) lay within 500 to 5000 nM and the “SMARCA2 % Degradation @ 1 μM” value is on record as “++ (++=30-70%)”. In addition, in experiment [2], the 50% degradation concentration (DC50) fell in the range of 500 to 5000 nM and the inhibition at 1 µM is under 30%.
For `COCC#Cc1nccc(N2CCCN(c3cc(-c4ccccc4O)nnc3N)CC2)n1` [Compound P-342, 0-(6-amino-5-{4-[2-(3-mcthoxy-1-propynyl)-4-pyrimidinyl]-1,4-diazepan-1-yl}-3-pyridazinyl)phenol], in experiment [1], the DC50 is 50 to 500 nM and the “SMARCA2 % Degradation @ 1 μM” value is reported as “++ (++=30-70%)”. In experiment [2], the 50% degradation concentration (DC50) lay in the range of 50 to 500 nM and the inhibition at 1 µM was in the range of 30 to 70%.
As to `C[C@H]1CN(c2cc(-c3ccccc3O)nnc2N)[C@@H](C)CN1c1ccnc(C#CCNC(=O)c2cc3ncccn3n2)n1` [Compound P-343, N-[3-(4-{(2S,5S)-4-[3-amino-6-(0-hydroxyphenyl)-4-pyridaziny1]-2,5-dimethyl-1-piperazinyl}-2-pyrimidinyl)-2-propynyl]-1,4,7a-triaza-2-indenecarboxamide], in experiment [1], the DC50 lay within 50 to 500 nM and the “SMARCA2 % Degradation @ 1 μM” value is “++ (++=30-70%)”. In addition, in experiment [2], the DC50 is 50 to 500 nM and the inhibition at 1 µM lay in the range of 30 to 70%.
Turning to `CN(C)CC#Cc1nccc(N2CCC3(CC2)CCN(c2cc(-c4ccccc4O)nnc2N)C3)n1` [Compound P-344, 0-[6-amino-5-(8-{2-[3-(dimethylamino)-1-propynyl]-4-pyrimidinyl}-2,8-diaza-2-spiro[4.5]decyl)-3-pyridazinyl]phenol], in experiment [1], the DC50 is under 50 nM and the “SMARCA2 % Degradation @ 1 μM” value is “++ (++=30-70%)”. The same compound displayed a half-maximal degradation concentration (DC50) in experiment [2] of over 5000 nM.
Consider `C[C@@H]1CCN(c2cc(-c3ccccc3O)nnc2N)CCN1c1ccnc(C#CCN(C)C)n1` [Compound P-345, 0-{5-[(R)-4-{2-[3-(dimethylamino)-1-propynyl]-4-pyrimidinyl}-5-methyl-1,4-diazepan-1-y1]-6-amino-3-pyridazinyl}phenol], for which, in experiment [1], the DC50 was under 50 nM and the “SMARCA2 % Degradation @ 1 μM” value was “++ (++=30-70%)”. In experiment [2], this compound gave a DC50 of under 50 nM and an inhibition at 1 µM of 30 to 70%.
For `Cn1cc(C#Cc2nccc(N3CCCN(c4cc(-c5ccccc5O)nnc4N)CC3)n2)cn1` [Compound P-346, 0-[6-amino-5-(4-{2-[2-(1-methyl-4-pyrazolyl)ethynyl]-4-pyrimidinyl}-1,4-diazepan-1-yl)-3-pyridazinyl]phenol], in experiment [1], the 50% degradation concentration (DC50) was in the range of 500 to 5000 nM and the “SMARCA2 % Degradation @ 1 μM” value is “++ (++=30-70%)”. In experiment [2], this compound yielded a 50% degradation concentration (DC50) of 500 to 5000 nM and an inhibition at 1 µM of under 30%.
With `Nc1nnc(-c2ccccc2O)cc1N1CCCN(c2ccnc(C#CC3COC3)n2)CC1` [Compound P-347, 0-[6-amino-5-(4-{2-[2-(3-oxetanyl)ethynyl]-4-pyrimidinyl}-1,4-diazepan-1-yl)-3-pyridazinyl]phenol], in experiment [1], the half-maximal degradation concentration (DC50) is 50 to 500 nM and the “SMARCA2 % Degradation @ 1 μM” value is given as “+++ (+++=>70%)”. In experiment [2], this compound had a DC50 of 50 to 500 nM and an inhibition at 1 µM of over 70%.
Regarding `CC(C)(C)OC(=O)N1CCCC1C#Cc1nccc(N2CCCN(c3cc(-c4ccccc4O)nnc3N)CC2)n1` (centres unmarked) [Compound P-348, tert-butyl 2-[2-(4-{4-[3-amino-6-(o-hydroxyphenyl)-4-pyridazinyl]-1,4-diazepan-1-y1}-2-pyrimidinyl)ethynyl]-1-pyrrolidinecarboxylate], in experiment [1], the DC50 is 50 to 500 nM and the “SMARCA2 % Degradation @ 1 μM” value is “+++ (+++=>70%)”. Moreover, in experiment [2], the 50% degradation concentration (DC50) was in the range of 50 to 500 nM and the inhibition at 1 µM was over 70%.
Consider `CC(C)(C)OC(=O)N1CCC(F)(C#Cc2nccc(N3CCCN(c4cc(-c5ccccc5O)nnc4N)CC3)n2)CC1` [Compound P-349], for which, in experiment [1], the DC50 lay within 50 to 500 nM and the “SMARCA2 % Degradation @ 1 μM” value is reported as “++ (++=30-70%)”. In experiment [2], this compound displayed a DC50 of 50 to 500 nM and an inhibition at 1 µM of 30 to 70%.
In the case of `CN1CCCC1C#Cc1nccc(N2CCCN(c3cc(-c4ccccc4O)nnc3N)CC2)n1` (centres unmarked) [Compound P-350, 0-[6-amino-5-(4-{2-[2-(1-methyl-2-pyrrolidinyl)cthynyl]-4-pyrimidinyl}-1,4-diazepan-1-yl)-3-pyridazinyl]phenol], in experiment [1], the half-maximal degradation concentration (DC50) lay within 50 to 500 nM and the “SMARCA2 % Degradation @ 1 μM” value is given as “+++ (+++=>70%)”. In experiment [2], this compound gave a DC50 of 50 to 500 nM and an inhibition at 1 µM of over 70%.
Consider `CC(C)(C)OC(=O)N1CCC(C#Cc2nccc(N3CCCN(c4cc(-c5ccccc5O)nnc4N)CC3)n2)CC1` [Compound P-351, tert-butyl 4-[2-(4-{4-[3-amino-6-(o-hydroxyphenyl)-4-pyridazinyl]-1,4-diazepan-1-yl}-2-pyrimidinyl)ethynyl]-1-piperidinecarboxylate], for which, in experiment [1], the DC50 was in the range of 500 to 5000 nM and the “SMARCA2 % Degradation @ 1 μM” value is listed as “++ (++=30-70%)”. In experiment [2], this compound registered a half-maximal degradation concentration (DC50) of 500 to 5000 nM and an inhibition at 1 µM of 30 to 70%.
`CS(=O)(=O)N1CCC(C#Cc2nccc(N3CCCN(c4cc(-c5ccccc5O)nnc4N)CC3)n2)CC1` [Compound P-352, 0-[6-amino-5-(4-{2-[2-(1-mesyl-4-piperidyl)ethynyl]-4-pyrimidinyl}-1,4-diazepan-1-yl)-3-pyridazinyl]phenol]: in experiment [1], the DC50 is 500 to 5000 nM and the “SMARCA2 % Degradation @ 1 μM” value is given as “++ (++=30-70%)”. Also, in experiment [2], the DC50 was in the range of 500 to 5000 nM and the inhibition at 1 µM lay in the range of 30 to 70%.
As for `COC(=O)NCC#Cc1nccc(N2CCCN(c3cc(-c4ccccc4O)nnc3N)CC2)n1` [Compound P-353, 3-(4-{4-[3-amino-6-(o-hydroxyphenyl)-4-pyridaziny1]-1,4-diazepan-1-y1}-2-pyrimidinyl)-2-propynylaminomethylformylate], in experiment [1], the DC50 lay within 50 to 500 nM and the “SMARCA2 % Degradation @ 1 μM” value is reported as “+++ (+++=>70%)”. Also, in experiment [2], the half-maximal degradation concentration (DC50) lay within 50 to 500 nM and the inhibition at 1 µM was over 70%.
Regarding `Cn1ccnc1C#Cc1nccc(N2CCCN(c3cc(-c4ccccc4O)nnc3N)CC2)n1` [Compound P-354], in experiment [1], the half-maximal degradation concentration (DC50) lay within 500 to 5000 nM and the “SMARCA2 % Degradation @ 1 μM” value was “++ (++=30-70%)”. In experiment [2], this compound gave a 50% degradation concentration (DC50) of 500 to 5000 nM and an inhibition at 1 µM of 30 to 70%.
Turning to `Nc1nnc(-c2ccccc2O)cc1N1CCCN(c2ccnc(C#CC34CCCN3CCC4)n2)CC1` [Compound P-355, 0-[6-amino-5-(4-{2-[2-(hexahydro-1H-pyrrolizin-7a-yl)ethynyl]-4-pyrimidinyl}-1,4-diazepan-1-yl)-3-pyridazinyl]phenol], in experiment [1], the DC50 lay in the range of 50 to 500 nM and the “SMARCA2 % Degradation @ 1 μM” value is “+++ (+++=>70%)”. Also, in experiment [2], the DC50 was 50 to 500 nM and the inhibition at 1 µM is over 70%.
